Where a name gives a salt, the structure may show the parent alone.
Columns and labels:
PDGFR beta = molecular target: T1, PDGFR beta (Homo sapiens, UniProt P09619); test: Phospho PDGFR LICOR Cell Assay (Example B); assay type: cell-based; settings: averaged IC50; PDGFR beta phosphorylation in HS27 human fibroblast cell line, PDGF-BB stimulation 10 minutes, normalized to total ERK
T1 construct: endogenous in cells; host or cells: HS27 human fibroblast cell line
Protocol: Compounds were screened for inhibition of PDGFR beta phosphorylation in the HS27 human fibroblast cell line. Cells were seeded into a 96 well tissue culture plate, then incubated overnight in a 37° C./5% CO2 incubator. The following day, cells were treated for one hour with test compound dilutions. After stimulation with PDGF-BB ligand for 10 minutes, cells were washed with PBS and fixed in 3.7% formaldehyde in PBS for 10 minutes. This was followed by washing in PBS/0.2% Triton X-100 and permeabilizing in 100% MeOH for 10 minutes. Cells were incubated in blocking buffer for 1 hour. Antibodies to phosphorylated PDGFRβ and total ERK were added to the cells and incubated for 3 hours. After washing with PBS/0.2% Triton X-100, the cells were incubated with fluorescently-labeled secondary antibodies for an additional hour. Cells were then washed with PBS and analyzed for fluorescence at both wavelengths using the Odyssey Infrared Imaging System (LI-COR Biosciences). Phosphorylated PDGFR signal was normalized to total ERK signal. A standard 4-parameter logistic model was fit to the inhibitor dose response curves, with the IC50 being defined as the concentration of inhibitor giving 50 percent of control (POC).

cFMS = molecular target: T2, cFMS (Homo sapiens, UniProt P07333); test: cFMS Cell-Based Assay (Example C); settings: averaged IC50; phospho-cFMS in THP-1 cells stimulated with 250 ng/mL recombinant human MCSF; read-out: cFMS Cell ELISA IC50
T2 construct: THP-1 cells (human acute monocytic leukemia cell line) were serum-starved for 4 hours; endogenous in cells; host or cells: THP-1 cells (human acute monocytic leukemia cell line)
T2 sequence (P07333 20-972): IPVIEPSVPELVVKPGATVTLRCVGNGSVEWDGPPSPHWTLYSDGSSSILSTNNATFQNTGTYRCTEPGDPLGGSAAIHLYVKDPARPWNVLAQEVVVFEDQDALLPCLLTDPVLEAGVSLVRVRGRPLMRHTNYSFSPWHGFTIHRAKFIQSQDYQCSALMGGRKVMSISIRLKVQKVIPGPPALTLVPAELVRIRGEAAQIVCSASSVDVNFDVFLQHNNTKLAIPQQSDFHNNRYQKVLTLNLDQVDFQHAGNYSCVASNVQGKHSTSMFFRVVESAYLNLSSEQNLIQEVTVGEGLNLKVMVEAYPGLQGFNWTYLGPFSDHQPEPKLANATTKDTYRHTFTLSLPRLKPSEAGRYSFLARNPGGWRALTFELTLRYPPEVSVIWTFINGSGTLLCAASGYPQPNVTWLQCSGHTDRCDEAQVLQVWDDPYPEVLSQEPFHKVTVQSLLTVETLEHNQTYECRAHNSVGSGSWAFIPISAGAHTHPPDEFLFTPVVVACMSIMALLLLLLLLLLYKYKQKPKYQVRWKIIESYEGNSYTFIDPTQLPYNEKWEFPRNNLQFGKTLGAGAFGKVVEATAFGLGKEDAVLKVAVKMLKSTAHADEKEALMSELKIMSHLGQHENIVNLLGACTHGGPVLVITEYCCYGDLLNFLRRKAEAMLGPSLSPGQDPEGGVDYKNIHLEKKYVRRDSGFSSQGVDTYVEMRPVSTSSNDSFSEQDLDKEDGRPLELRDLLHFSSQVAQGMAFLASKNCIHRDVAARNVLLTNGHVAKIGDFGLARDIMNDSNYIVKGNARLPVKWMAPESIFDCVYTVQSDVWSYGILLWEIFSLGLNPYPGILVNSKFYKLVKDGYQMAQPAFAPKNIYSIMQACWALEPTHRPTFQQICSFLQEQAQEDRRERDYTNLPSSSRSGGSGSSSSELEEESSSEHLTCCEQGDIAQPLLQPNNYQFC
Protocol: The ability of compounds of Formula I to inhibit cFMS activation in cells was determined by the following assay. THP-1 cells (human acute monocytic leukemia cell line) were serum-starved for 4 hours prior to treatment with compounds of Formula I for 1 hour. The concentration of compounds of Formula I was varied over a 9-point, 3-fold dilution series with 5,000 nM typically being the highest dose. Cell culture and treatment were carried out in a humidified 37° C., 5% CO2 incubator. Treated cells were stimulated with 250 ng/mL recombinant human MCSF for 1 minute to induce activation of cFMS. Cells were lysed in a manner which preserves phosphoproteins, and the lysate was analyzed by ELISA (R&D Systems, Human Phospho-M-CSF R DuoSet IC DYC3268), in which total cFMS protein in the lysate is captured and phosphotyrosine residues of cFMS are detected. A standard curve, made using purified phospho-M-CSF R protein, was used to quantify phospho-c-FMS in compound-treated wells. A standard 4-parameter logistic model was fit to the inhibitor dose response curves, with the IC50 being defined as the concentration of inhibitor giving 50 percent of control (POC).

c-KIT = molecular target: T3, c-KIT (Homo sapiens, UniProt P10721); test: c-KIT Cell-Based Assay (Example D); settings: averaged IC50; phospho-c-KIT in M-07e cells stimulated with 150 ng/ml recombinant human SCF; read-out: cKIT Cell ELISA IC50
T3 construct: M-07e cells (human acute megakaryoblastic leukemia cell line) were serum-starved for 4 hours; endogenous in cells; host or cells: M-07e cells (human acute megakaryoblastic leukemia cell line)
T3 sequence (P10721 26-976): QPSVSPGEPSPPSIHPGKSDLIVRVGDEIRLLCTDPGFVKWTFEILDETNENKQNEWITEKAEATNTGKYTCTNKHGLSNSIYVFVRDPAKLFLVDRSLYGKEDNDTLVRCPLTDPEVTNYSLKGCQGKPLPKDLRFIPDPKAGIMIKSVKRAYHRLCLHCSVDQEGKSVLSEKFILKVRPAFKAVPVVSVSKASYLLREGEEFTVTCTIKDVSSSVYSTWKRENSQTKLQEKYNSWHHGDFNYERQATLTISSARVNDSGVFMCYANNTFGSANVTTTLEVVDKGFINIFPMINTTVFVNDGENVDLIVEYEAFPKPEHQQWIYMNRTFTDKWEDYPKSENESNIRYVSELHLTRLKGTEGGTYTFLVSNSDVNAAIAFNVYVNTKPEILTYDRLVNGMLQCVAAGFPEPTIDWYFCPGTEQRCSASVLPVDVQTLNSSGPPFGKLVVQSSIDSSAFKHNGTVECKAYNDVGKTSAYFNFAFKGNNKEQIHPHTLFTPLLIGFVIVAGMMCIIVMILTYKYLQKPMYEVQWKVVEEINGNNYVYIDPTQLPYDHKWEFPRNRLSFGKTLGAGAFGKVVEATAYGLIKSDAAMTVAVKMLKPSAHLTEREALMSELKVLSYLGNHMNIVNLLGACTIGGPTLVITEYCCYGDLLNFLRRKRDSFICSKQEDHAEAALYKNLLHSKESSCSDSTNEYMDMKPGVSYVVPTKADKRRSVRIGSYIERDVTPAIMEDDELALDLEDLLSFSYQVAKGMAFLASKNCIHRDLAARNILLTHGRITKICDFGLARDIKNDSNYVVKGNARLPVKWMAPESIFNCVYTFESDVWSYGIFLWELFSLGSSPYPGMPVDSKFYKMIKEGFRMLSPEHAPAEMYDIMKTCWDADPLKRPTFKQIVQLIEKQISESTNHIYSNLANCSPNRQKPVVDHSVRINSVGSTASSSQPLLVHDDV
Protocol: The ability of compounds of Formula I to inhibit c-KIT activation in cells was determined by the following assay. M-07e cells (human acute megakaryoblastic leukemia cell line) were serum-starved for 4 hours prior to treatment with compounds of Formula I for 1 hour. The concentration of compounds of Formula I was varied over a 9-point, 3-fold dilution series with 5,000 nM typically being the highest dose. Cell culture and treatment were carried out in a humidified 37° C., 5% CO2 incubator. Treated cells were stimulated with 150 ng/ml recombinant human SCF for 4 minutes to induce activation of c-KIT. Cells were lysed in a manner which preserves phosphoproteins, and the lysate was analyzed by ELISA (R&D Systems, Human Phospho-SCF R DuoSet IC DYC3527), in which total c-KIT protein in the lysate is captured and phosphotyrosine residues of c-Kit are detected. A standard curve, made using purified phospho-SCF R protein, was used to quantify phospho-c-KIT in compound-treated wells. A standard 4-parameter logistic model was fit to the inhibitor dose response curves, with the IC50 being defined as the concentration of inhibitor giving 50 percent of control (POC).

T1 sequence (P09619 33-1106): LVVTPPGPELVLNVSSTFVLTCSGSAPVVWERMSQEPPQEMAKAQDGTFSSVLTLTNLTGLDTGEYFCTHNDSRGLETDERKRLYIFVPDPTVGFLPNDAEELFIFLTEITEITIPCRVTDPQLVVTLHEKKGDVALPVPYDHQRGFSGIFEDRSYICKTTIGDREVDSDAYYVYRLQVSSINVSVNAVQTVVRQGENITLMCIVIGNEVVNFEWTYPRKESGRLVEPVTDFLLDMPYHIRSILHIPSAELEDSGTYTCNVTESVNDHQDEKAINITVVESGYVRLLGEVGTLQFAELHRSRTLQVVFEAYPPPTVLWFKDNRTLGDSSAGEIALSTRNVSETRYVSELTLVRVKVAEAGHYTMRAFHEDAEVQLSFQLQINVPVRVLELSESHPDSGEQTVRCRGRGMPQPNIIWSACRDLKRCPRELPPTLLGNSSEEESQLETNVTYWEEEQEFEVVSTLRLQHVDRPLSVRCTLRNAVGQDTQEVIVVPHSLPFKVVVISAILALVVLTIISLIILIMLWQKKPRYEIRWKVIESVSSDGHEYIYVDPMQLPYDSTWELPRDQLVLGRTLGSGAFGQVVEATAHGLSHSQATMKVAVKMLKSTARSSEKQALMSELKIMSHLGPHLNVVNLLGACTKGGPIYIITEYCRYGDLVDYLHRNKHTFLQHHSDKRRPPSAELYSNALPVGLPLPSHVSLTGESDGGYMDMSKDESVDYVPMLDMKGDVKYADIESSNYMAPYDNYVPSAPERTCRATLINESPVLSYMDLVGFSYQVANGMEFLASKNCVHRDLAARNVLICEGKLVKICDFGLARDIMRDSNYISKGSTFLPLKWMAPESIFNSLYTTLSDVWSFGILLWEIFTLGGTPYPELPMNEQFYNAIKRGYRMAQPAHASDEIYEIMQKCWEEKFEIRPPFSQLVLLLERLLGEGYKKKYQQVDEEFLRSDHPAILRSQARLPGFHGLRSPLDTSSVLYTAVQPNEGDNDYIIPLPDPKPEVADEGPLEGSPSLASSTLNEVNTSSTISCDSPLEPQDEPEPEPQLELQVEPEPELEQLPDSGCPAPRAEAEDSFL

| SMILES | IC50 (PDGFR beta) [nM] | IC50 (cFMS) [nM] | IC50 (c-KIT) [nM] |
| --- | --- | --- | --- |
| COCCOc1ccn2c(C(=O)Nc3cccc4c3cnn4Cc3ccc(C)nc3)cnc2c1 [Example 124, 7-(2-methoxyethoxy)-N-(1-((6-methylpyridin-3-yl)methyl)-1H-indazol-4-yl)imidazo[1,2-a]pyridine-3-carboxamide] | 6.9 | 8.3 | 9.5 |
| CC(c1ccn2c(C(=O)Nc3cccc4c3cnn4Cc3ccccc3)cnc2c1)N1CCOCC1 (stereo not shown) [Example 148, N-(1-benzyl-1H-indazol-4-yl)-7-(1-morpholinoethyl)imidazo[1,2-a]pyridine-3-carboxamide] | 994 | 93.1 | 189 |
| Cc1cccc(Cn2nc(C)c3c(NC(=O)c4cnc5cc(OCC(O)CO)ccn45)cccc32)n1 (stereo not shown) [Example 58, 7-(2,3-dihydroxypropoxy)-N-(3-methyl-1-((6-methylpyridin-2-yl)methyl)-1H-indazol-4-yl)imidazo[1,2-a]pyridine-3-carboxamide] | 915 | 21.9 | 6870 |
| Cc1nn(Cc2ccn(C(C)C)n2)c2cccc(NC(=O)c3cnc4cc(OCCN5CCN(C)CC5)ccn34)c12 [Example 48, N-(1-((1-isopropyl-1H-pyrazol-3-yl)methyl)-3-methyl-1H-indazol-4-yl)-7-(2-(4-methylpiperazin-1-yl)ethoxy)imidazo[1,2-a]pyridine-3-carboxamide bis hydrochloride] | 47.7 | 13.3 | 45.1 |
| Cc1cccc(Cn2nc(C)c3c(NC(=O)c4cnc5cc(CCN(C)C)ccn45)cccc32)n1 [Example 72, 7-(2-(dimethylamino)ethyl)-N-(3-methyl-1-((6-methylpyridin-2-yl)methyl)-1H-indazol-4-yl)imidazo[1,2-a]pyridine-3-carboxamide] | 3160 | 24.2 | 7010 |
| Cc1nn(Cc2cc(C)n(C(C)C)n2)c2cccc(NC(=O)c3cnc4cc(OCCN5CC6(CN(C)C6)C5)ccn34)c12 [Example 8, N-(1-((1-Isopropyl-5-methyl-1H-pyrazol-3-yl)methyl)-3-methyl-1H-indazol-4-yl)-7-(2-(6-methyl-2,6-diazaspiro[3.3]heptan-2-yl)ethoxy)imidazo[1,2-a]pyridine-3-carboxamide] | 32.6 | 33.6 | 122 |
| COCCOc1ccn2c(C(=O)Nc3c(Cl)ccc4c3cnn4Cc3ccccc3)cnc2c1 [Example 137, N-(1-benzyl-5-chloro-1H-indazol-4-yl)-7-(2-methoxyethoxy)imidazo[1,2-a]pyridine-3-carboxamide] | 2 | 3.1 | 3.1 |
| COCCOc1ccn2c(C(=O)Nc3cccc4c3cnn4Cc3cccc(OC)c3)cnc2c1 [Example 140, N-(1-(3-methoxybenzyl)-1H-indazol-4-yl)-7-(2-methoxyethoxy)imidazo[1,2-a]pyridine-3-carboxamide] | 2.5 | 3.1 | 4.8 |
| NC(=O)c1ccc2ncc(C(=O)Nc3cccc4c3cnn4Cc3ccccc3)n2c1 [Example 160, N3-(1-benzyl-1H-indazol-4-yl)imidazo[1,2-a]pyridine-3,6-dicarboxamide] | 714 | 132 | 868 |
| Cc1cccc(Cn2ncc3c(NC(=O)c4cnc5cc(OCCN6CCN(C)CC6)ccn45)cccc32)n1 [Example 150, 7-(2-(4-methylpiperazin-1-yl)ethoxy)-N-(1-((6-methylpyridin-2-yl)methyl)-1H-indazol-4-yl)imidazo[1,2-a]pyridine-3-carboxamide] | 1.7 | 4.6 | 14.4 |
| CN1CCN(CCOc2ccn3c(C(=O)Nc4cccc5c4cnn5Cc4cccnc4)cnc3c2)CC1 [Example 102, 7-(2-(4-methylpiperazin-1-yl)ethoxy)-N-(1-(pyridin-3-ylmethyl)-1H-indazol-4-yl)imidazo[1,2-a]pyridine-3-carboxamide trihydrochloride] | 17.6 | 26 | 94.9 |
| Cc1cccc(Cn2nc(C)c3c(NC(=O)c4cnc5cc(-c6ccc(=O)n(C)c6)ccn45)cccc32)n1 [Example 65, N-(3-methyl-1-((6-methylpyridin-2-yl)methyl)-1H-indazol-4-yl)-7-(1-methyl-6-oxo-1,6-dihydropyridin-3-yl)imidazo[1,2-a]pyridine-3-carboxamide] | 212 | 8.5 | 647 |
| CC(O)c1ccn2c(C(=O)Nc3cccc4c3cnn4Cc3ccccc3)cnc2c1 (stereo not shown) [Example 147, N-(1-benzyl-1H-indazol-4-yl)-7-(1-hydroxyethyl)imidazo[1,2-a]pyridine-3-carboxamide] | 399 | 72.6 | 93.1 |
| CC(=O)c1ccn2c(C(=O)Nc3cccc4c3cnn4Cc3ccccc3)cnc2c1 [Example 146, 7-acetyl-N-(1-benzyl-1H-indazol-4-yl)imidazo[1,2-a]pyridine-3-carboxamide] | 109 | 58.2 | 36.9 |
| Cc1cccc(Cn2nc(C)c3c(NC(=O)c4cnc5cc(-c6c(C)n[nH]c6C)ccn45)cccc32)n1 [Example 69, 7-(3,5-dimethyl-1H-pyrazol-4-yl)-N-(3-methyl-1-((6-methylpyridin-2-yl)methyl)-1H-indazol-4-yl)imidazo[1,2-a]pyridine-3-carboxamide] | – | 8.2 | – |
| COCCOc1ccn2c(C(=O)Nc3cccc4c3cnn4-c3ccccc3)cnc2c1 [Example 133, 7-(2-Methoxyethoxy)-N-(1-phenyl-1H-indazol-4-yl)imidazo[1,2-a]pyridine-3-carboxamide] | 1000 | 99.1 | – |
| O=C(Nc1cccc2c1cnn2CC1CCCCO1)c1cnc2ccccn12 (stereo not shown) [Example 128, N-(1-((tetrahydro-2H-pyran-2-yl)methyl)-1H-indazol-4-yl)imidazo[1,2-a]pyridine-3-carboxamide] | – | 131 | – |
| Cc1cccc(Cn2nc(C)c3c(NC(=O)c4cnc5cc(OCCN6CCCC6)ccn45)cccc32)n1 [Example 55, N-(3-methyl-1-((6-methylpyridin-2-yl)methyl)-1H-indazol-4-yl)-7-(2-(pyrrolidin-1-yl)ethoxy)imidazo[1,2-a]pyridine-3-carboxamide dihydrochloride] | 305 | 40.1 | – |
| COCCNCCc1ccn2c(C(=O)Nc3cccc4c3c(C)nn4Cc3cccc(C)n3)cnc2c1 [Example 74, 7-(2-(2-methoxyethylamino)ethyl)-N-(3-methyl-1-((6-methylpyridin-2-yl)methyl)-1H-indazol-4-yl)imidazo[1,2-a]pyridine-3-carboxamide] | – | 79.5 | – |
| COCCOc1ccn2c(C(=O)Nc3cccc4c3cnn4Cc3cccc(O)c3)cnc2c1 [Example 130, N-(1-(3-hydroxybenzyl)-1H-indazol-4-yl)-7-(2-methoxyethoxy)imidazo[1,2-a]pyridine-3-carboxamide] | 114 | 442 | – |
| Cc1ccc(-c2ccn3c(C(=O)Nc4cccc5c4c(C)nn5Cc4cccc(C)n4)cnc3c2)cn1 [Example 50, N-(3-methyl-1-((6-methylpyridin-2-yl)methyl)-1H-indazol-4-yl)-7-(6-methylpyridin-3-yl)imidazo[1,2-a]pyridine-3-carboxamide di-hydrochloride] | – | 5.8 | – |

— patent US10669269B2, “Substituted N-(1H-indazol-4-yl)imidazo[1,2-a]pyridine-3-carboxamide compounds as type III receptor tyrosine kinase inhibitors” (ARRAY BIOPHARMA INC., priority 2010, dated 2020)
